Assay results published in patent US10266548B2, “Substituted benzylindazoles for use as Bub1 kinase inhibitors in the treatment of hyperproliferative diseases” (Bayer Intellectual Property GmbH, priority 2011, dated 2019).
Like-named read-outs stand apart in the source and are kept apart here.

Experiments:
DU145 cells = experiment: Proliferation assay (DU145 cell line); assay type: cell-based; settings: Homo sapiens, DU-145, 96 h, read-out: Biological Assay 2: Proliferation assay (DU145 cell line) median IC50
Method: (§1) Cultivated tumor cells (cells were ordered from ATCC, except HeLa-MaTu and HeLa-MaTu-ADR, which were ordered from EPO-GmbH, Berlin) were plated at a density of 1000 to 5000 cells/well, depending on the growth rate of the respective cell line, in a 96-well multititer plate in 200 μL of their respective growth medium supplemented 10% fetal calf serum. After 24 hours, the cells of one plate (zero-point plate) were stained with crystal violet (see below), while the medium of the other plates was replaced by fresh culture medium (200 μl), to which the test substances were added in various concentrations (0 μM, as well as in the range of 0.001-10 μM; the final concentration of the solvent dimethyl sulfoxide was 0.5%). The cells were incubated for 4 days in the presence of test substances. Cell proliferation was determined by staining the cells with crystal violet: the cells were fixed by adding 20 μl/measuring point of an 11% glutaric aldehyde solution for 15 minutes at room temperature. After three washing cycles of the fixed cells with water, the plates were dried at room temperature. The cells were stained by adding 100 μl/measuring point of a 0.1% crystal violet solution (pH 3.0). After three washing cycles of the stained cells with water, the plates were dried at room temperature. The dye was dissolved by adding 100 μl/measuring point of a 10% acetic acid solution. […] The change of cell number, in percent, was calculated by normalization of the measured values to the aborbtion values of the zero-point plate (=0%) and the absorbtion of the untreated (0 μm) cells (=100%). The IC50 values were determined by means of a 4 parameter fit using the company's own software.

B16F10 cells = experiment: Proliferation assay (B16F10 cell line); assay type: cell-based; settings: Mus musculus, B16-F10, 96 h, read-out: Biological Assay 2: Proliferation assay (B16F10 cell line) median IC50
Method: as §1

Caco2 cells = experiment: Proliferation assay (Caco2 cell line); assay type: cell-based; settings: Homo sapiens, Caco-2, 96 h, read-out: Biological Assay 2: Proliferation assay (Caco2 cell line) median IC50
Method: as §1

NCI-H460 cells = experiment: Proliferation assay (H460 cell line); assay type: cell-based; settings: Homo sapiens, NCI-H460, 96 h, read-out: Biological Assay 2: Proliferation assay (H460 cell line) median IC50
Method: as §1

[1] = molecular target: catalytic domain of human Bub1 (amino acids 704-1085) (Homo sapiens (Human), UniProt O43683); experiment: Bub1 kinase assay (TR-FRET); assay type: biochemical; settings: 10 μM ATP, 1 μM peptide substrate; read-out: Biological Assay 1: Bub1 kinase assay median IC50
catalytic domain of human Bub1 (amino acids 704-1085), sequence (O43683 704-1085): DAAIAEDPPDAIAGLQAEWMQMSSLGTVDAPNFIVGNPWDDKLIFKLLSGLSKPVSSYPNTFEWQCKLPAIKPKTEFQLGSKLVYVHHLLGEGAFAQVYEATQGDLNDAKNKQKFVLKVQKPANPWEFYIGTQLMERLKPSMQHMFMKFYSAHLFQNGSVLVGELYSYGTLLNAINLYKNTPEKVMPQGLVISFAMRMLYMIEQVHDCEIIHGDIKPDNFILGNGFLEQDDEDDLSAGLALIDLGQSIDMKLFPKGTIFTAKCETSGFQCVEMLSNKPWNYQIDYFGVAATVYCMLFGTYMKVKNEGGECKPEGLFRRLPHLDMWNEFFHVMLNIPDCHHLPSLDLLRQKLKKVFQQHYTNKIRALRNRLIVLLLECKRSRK
In short: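 Phosphoserine product detected by TR-FRET (Eu-labeled anti-mouse IgG/anti-phosphoserine antibody to streptavidin-XL665) after 1 h at 22 °C. IC50 from 4-parameter logistic fit.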

HeLa cells = experiment: Proliferation assay (HeLa cell line); assay type: cell-based; settings: Homo sapiens, 96 h, read-out: Biological Assay 2: Proliferation assay (HeLa cell line) median IC50
HeLa-MaTu-ADR cells = experiment: Proliferation assay (HeLa-MaTu-ADR cell line); assay type: cell-based; settings: 96 h, read-out: Biological Assay 2: Proliferation assay (HeLa-MaTu-ADR cell line) median IC50
Method: as §1

[2] = HeLa-MaTu-ADR, 4 days, crystal violet

IC50 (DU145 cells; DU145, 4 days, crystal violet) | IC50 (B16F10 cells; B16F10, 4 days, crystal violet) | IC50 (Caco2 cells; Caco2, 4 days, crystal violet) | IC50 (NCI-H460 cells; H460, 4 days, crystal violet) | IC50 (HeLa cells; 4 days, crystal violet) | IC50 (HeLa-MaTu-ADR cells; [2]) | SMILES | IC50 (DU145 cells) | IC50 (B16F10 cells) | IC50 (Caco2 cells) | IC50 (NCI-H460 cells) | IC50 [1] | IC50 (HeLa cells) | IC50 (HeLa-MaTu-ADR cells)
– | – | – | – | – | – | CCOc1cc(F)c(Cn2nc(-c3ncc(OC[C@H]4CCC(=O)N4)c(Nc4ccncc4)n3)c3ccccc32)c(F)c1 [Example 4-19, (5R)-5-[({2-[1-(4-ethoxy-2,6-difluorobenzyl)-1H-indazol-3-yl]-4-(pyridin-4-ylamino)pyrimidin-5-yl}oxy)methyl] pyrrolidin-2-one] | 2300 nM | 530 nM | 10000 nM | 2200 nM | 10 nM | 1200 nM | 10000 nM
– | – | – | – | – | – | CCOc1cc(F)c(Cn2nc(-c3ncc(OC[C@@H]4CCC(=O)N4)c(Nc4ccncc4)n3)c3ccccc32)c(F)c1 [Example 4-22, (5S)-5-[({2-[1-(4-ethoxy-2,6-difluorobenzyl)-1H-indazol-3-yl]-4-(pyridin-4-ylamino)pyrimidin-5-yl}oxy)methyl] pyrrolidin-2-one] | 3600 nM | 1200 nM | 9500 nM | 2100 nM | 5.8 nM | 1900 nM | 10000 nM
3000 nM | 2900 nM | 3000 nM | 3000 nM | 290 nM | 3000 nM | COC(=O)c1ccc(Cn2nc(-c3ncc(OC)c(Nc4ccncc4)n3)c3ccccc32)c(Cl)c1 [Example 2-11-1, methyl 3-chloro-4-({3-[5-methoxy-4-(pyridin-4-ylamino)pyrimidin-2-yl]-1H-indazol-1-yl}methyl)benzoate] | – | – | – | – | 7.1 nM | – | –
1600 nM | 790 nM | 1200 nM | 1300 nM | 1500 nM | 1300 nM | CCOc1cc(F)c(Cn2nc(-c3ncc(OCCO)c(Nc4ccncc4)n3)c3ccccc32)c(F)c1 [Example 13-1, 2-({2-[1-(4-ethoxy-2,6-difluorobenzyl)-1H-indazol-3-yl]-4-(pyridin-4-ylamino)pyrimidin-5-yl}oxy)ethanol] | – | – | – | – | 3.3 nM | – | –
– | – | – | – | – | – | COc1cnc(-c2nn(Cc3c(F)c(F)c(OC)c(F)c3F)c3ccccc23)nc1Nc1ccncc1 [Example 2-24-1, 5-methoxy-N-(pyridin-4-yl)-2-[1-(2,3,5,6-tetrafluoro-4-methoxybenzyl)-1H-indazol-3-yl]pyrimidin-4-amine] | 1300 nM | 1400 nM | 1500 nM | 2000 nM | 14 nM | 3100 nM | 1300 nM
– | – | – | – | – | – | CCOc1cc(F)c(Cn2nc(-c3ncc(OCC(O)CN4CCCCC4)c(Nc4ccncc4)n3)c3ccccc32)c(F)c1 (stereo not shown) [Example 4-9, 1-({2-[1-(4-ethoxy-2,6-difluorobenzyl)-1H-indazol-3-yl]-4-(pyridin-4-ylamino)pyrimidin-5-yl}oxy)-3-(piperidin-1-yl)propan-2-ol] | 1300 nM | 530 nM | 780 nM | 1300 nM | 5.4 nM | 1700 nM | 860 nM
– | – | – | – | – | – | COC(=O)c1ccc(CN(c2ccncc2)c2nc(-c3nn(Cc4ccc(C(=O)OC)cc4Cl)c4ccccc34)ncc2OC)c(Cl)c1 [Example 2-11-2, methyl 3-chloro-4-{[(2-{1-[2-chloro-4-(methoxycar-bonyl)benzyl]-1H-indazol-3-yl}-5-methoxypyrimidin-4-yl)(pyridin-4-yl)amino]methyl} benzoate] | 3600 nM | 2100 nM | 8000 nM | 2300 nM | 540 nM | 3400 nM | 10000 nM
3300 nM | 1200 nM | 1400 nM | 4200 nM | 3500 nM | 1300 nM | COc1cnc(-c2nn(Cc3c(F)ccc(OC)c3F)c3ccccc23)nc1Nc1ccncc1 [Example 2-4-1, 2-[1-(2,6-difluoro-3-methoxybenzyl)-1H-indazol-3-yl]-5-methoxy-N-(pyridin-4-yl)pyrimidin-4-amine] | – | – | – | – | 4.5 nM | – | –
4500 nM | 500 nM | 900 nM | 3500 nM | 3400 nM | 1200 nM | CN(C)CCOc1cnc(-c2nn(Cc3ccccc3F)c3ccccc23)nc1Nc1ccncc1 [Example 4-4, 5-[2-(dimethyl-amino)ethoxy]-2-[1-(2-fluorobenzyl)-1H-indazol-3-yl] N-(pyridin-4-yl)pyrimidin-4-amine] | – | – | – | – | 14 nM | – | –
– | – | – | – | – | – | CCOc1cc(F)c(Cn2nc(-c3ncc(OCCN(C)C)c(Nc4ccncc4)n3)c3ccccc32)c(F)c1 [Example 4-8, 5-[2-(dimethyl-amino)ethoxy]-2-[1-(4-ethoxy-2,6-difluorobenzyl)-1H-indazol-3-yl]-N-(pyridin-4~ yl)pyrimidin-4-amine] | 1200 nM | 570 nM | 760 nM | 1100 nM | 8 nM | 1300 nM | 360 nM
– | – | – | – | – | – | COc1cnc(-c2nn(Cc3c(Cl)cccc3Cl)c3ccccc23)nc1Nc1ccncc1 [Example 2-9-1, 2-[1-(2,6-dichlorobenzyl)-1H-indazol-3-yl]-5-methoxy-N-(pyridin-4-yl)pyrimidin-4-amine] | 10000 nM | 9500 nM | 10000 nM | 10000 nM | 6.7 nM | – | 8100 nM
– | – | – | – | ≥ 10000 nM | – | COc1cnc(-c2nn(Cc3ccc(C)c(F)c3F)c3ccccc23)nc1Nc1ccncc1 [Example 2-8-1, 2-[1-(2,3-difluoro-4-methylbenzyl)-1H-indazol-3-yl]-5-methoxy-N-(pyridin-4-yl)pyrimidin-4-amine] | – | – | – | – | 6.7 nM | – | –
– | – | – | – | – | – | NS(=O)(=O)COc1cnc(-c2nn(Cc3ccccc3F)c3ccccc23)nc1Nc1ccncc1 [Example 4-3, 1-({2-[1-(2-fluorobenzyl)-1H-indazol-3-yl]-4-(pyridin-4-ylamino)pyrimidin-5-yl}oxy)methane-sulfonamide] | – | – | – | – | 7.5 nM | 14000 nM | –
– | – | – | – | – | – | COc1cnc(-c2nn(Cc3cccc(SC(F)(F)F)c3)c3ccccc23)nc1Nc1ccncc1 [Example 2-7-3, 5-methoxy-N-(pyridin-4-yl)-2-(1-{3-[(trifluoromethyl)sulfanyl]benzyl}-1H-indazol-3-yl)pyrimidin-4-amine] | – | – | – | – | 430 nM | ≥ 10000 nM | –
– | – | – | – | – | – | COc1cnc(-c2nn(Cc3c(F)cc(F)cc3F)c3ccccc23)nc1Nc1ccncc1 [Example 2-17-1, 5-methoxy-N-(pyridin-4-yl)-2-[1-(2,4,6-trifluorobenzyl)-1H-indazol-3-yl]pyrimidin-4-amine] | – | – | – | – | 8.8 nM | ≥ 10000 nM | –
– | – | – | – | ≥ 10000 nM | – | COc1cnc(-c2nn(Cc3ccc(C#N)cc3)c3ccccc23)nc1Nc1ccncc1 [Example 2-42-1, 4-({3-[5-methoxy-4-(pyridin-4-ylamino)pyrimidin-2-yl]-1H-indazol-1-yl}methyl)benzonitrile] | – | – | – | – | 190 nM | – | –
– | – | – | – | – | – | COc1cnc(-c2nn(Cc3ccc(I)cc3F)c3ccccc23)nc1Nc1ccncc1 [Example 2-20-1, 2-[1-(2-fluoro-4-iodobenzyl)-1H-indazol-3-yl]-5-methoxy-N-(pyridin-4-yl)pyrimidin-4-amine] | – | – | – | – | 11 nM | 7300 nM | –
